Measured values published in patent US20230414775A1, “TUBULYSINS AND PROTEIN-TUBULYSIN CONJUGATES” (priority 2021, published 2023).
Where two headings read alike, the source gives them in different places.

Tests used:
[1] = tested on: SK-BR-3 cells; experiment: SK-BR-3 anti-proliferation assay for payloads (CellTiter-Glo); format: cell-based; conditions: Homo sapiens, free payload, 120-144 h, read-out: SKBR3
Protocol: The cell line used in the anti-proliferation assays was SK-BR-3, a human breast, adenocarcinoma (pleural effusion) cell line. The cells were grown in McCoy's 5a Medium+10% FBS. To run the assay for payloads, the cells (40 μL, 700 cells) were added to each well in a 384-well plate and incubated for 24 hours at 37° C. with 5% CO2. Then the cells were treated with test compounds at various concentrations using HPD300, and then normalize the DMSO to 0.5%. The control wells contain cells and the medium but lack the test compounds. The plates were incubated for 120 h at 37° C. with 5% CO2. To run the assay for ADCs and some key payloads, the cells (80 μL, 1000 cells) were added to each well in a 96-well plate and incubated for twenty-four hours at 37° C. with 5% CO2. Next, the ADCs or payloads were diluted with Opti-Mem with 0.1% BSA. The cells were treated with test compounds or ADCs (20 μL) at various concentrations in appropriate cell culture medium (total volume, 0.1 mL). The final concentration of DMSO was adjusted to 0.2% and the Opti-Mem with 0.1% BSA was adjusted to 5%. The control wells contained cells and the medium but lacked the test compounds. The plates were incubated for 144 h at 37° C. with 5% CO2. CTG reagent was then added to the wells (25 μL/384-well or 100 μL/96-well). After the plates were shaken for 10 min and then incubated for 10 min at room temperature, paste the clear bottom with white back seal and record luminescence with Envision. The inhibition % was calculated according to the following equation: inhibition %=[1-(assay-blank)/(control-blank)]×100.

[2] = tested on: HCT15 cells; experiment: HCT15 anti-proliferation / cell killing assay (CellTiter-Glo), with or without verapamil; format: cell-based, human; conditions: Homo sapiens
Protocol: The cell line used in the anti-proliferation assays was HCT15, a human colon, colorectal carcinoma cell line. The HCT15 cells were grown in RPMI medium 1640+10% FBS. To run the assay, the cells (40 μL, 400 cells) were added to each well in a 384-well plate and incubated for twenty-four hours at 37° C. with 5% CO2. One hour before adding compounds, freshly dilute Verapamil to 0.2 mg/ml in ddH2O. Add 1 μL/well diluted Verapamil to Verapamil treatment wells and 1 μL/well ddH2O to the non-Verapamil treatment wells. Return plates to the incubator at 37° C. with 5% CO2. Then the cells were treated with test compounds at various concentrations using HPD300, and then normalize the DMSO to 0.5%. The control wells contained cells and the medium but lack the test compounds. The plates were incubated for 120 hours at 37° C. with 5% CO2. CTG reagent was then added to the wells (25 μL). After the plates were shaken for 10 min and then incubated for 10 min at room temperature, paste the clear bottom with white back seal and record luminescence with Envision. The inhibition % was calculated according to the following equation: inhibition %=[1−(assay-blank)/(control-blank)]×100.

[3] = HCT15 cells, no verapamil, 120 h (5 days), read-out: HCT-15
[4] = HCT-15, HCT15 cells pre-treated with verapamil, 120 h, read-out: HCT-15 with verapamil

Structure (SMILES)	IC50 [1] [nM]	IC50 [2, 3] [nM]	IC50 [2, 4] [nM]
CCCCCCN(C(=O)[C@@H](NC(=O)[C@H]1CCCCN1C)[C@@H](C)CC)[C@H](C[C@@H](OC(=O)NCC(O)CO)c1nc(C(=O)N[C@@H](Cc2ccc(N)cc2)CC(C)(C)C(=O)O)cs1)C(C)C (stereo partly drawn) [PA26, (4S)-5-(4-aminophenyl)-4-(2-((3S,6R,8R)-3-((S)-sec-butyl)-5-hexyl-13,14-dihydroxy-6-isopropyl-1-((R)-1-methylpiperidin-2-yl)-1,4,10-trioxo-9-oxa-2,5,11-triazatetradecan-8-yl)thiazole-4-carboxamido)-2,2-dimethylpentanoic acid]	2.82	14.6	2.23
CCCCCCN(C(=O)[C@@H](NC(=O)[C@H]1CCCCN1CCOCCN)[C@@H](C)CC)[C@H](C[C@@H](OC(C)=O)c1nc(C(=O)N[C@@H](Cc2ccc(N)cc2)CC(C)(C)C(=O)O)cs1)C(C)C [PA11, (4S)-4-({2-[(1R,3R)-1-(acetyloxy)-3-[(2S,3S)-2-{[(2R)-1-[2-(2-aminoethoxy)ethyl]piperidin-2-yl]formamido}-N-hexyl-3-methylpentanamido]-4-methylpentyl]-1,3-thiazol-4-yl}formamido)-5-(4-aminophenyl)-2,2-dimethylpentanoic acid]	15.1	150	5.3
CCCCCCN(C(=O)[C@@H](NC(=O)[C@H]1CCCCN1CCOCCOCCN)[C@@H](C)CC)[C@H](C[C@@H](OC(C)=O)c1nc(C(=O)N[C@@H](Cc2ccc(N)cc2)CC(C)(C)C(=O)O)cs1)C(C)C [PA12, (4S)-4-({2-[(1R,3R)-1-(acetyloxy)-3-[(2S,3S)-2-{[(2R)-1-{2-[2-(2-aminoethoxy)ethoxy]ethyl}piperidin-2-yl]formamido}-N-hexyl-3-methylpentanamido]-4-methylpentyl]-1,3-thiazol-4-yl}formamido)-5-(4-aminophenyl)-2,2-dimethylpentanoic acid]	> 100	72.1	4.73
CCCCCCN(C(=O)[C@@H](NC(=O)[C@H]1CCCCN1C)[C@@H](C)CC)[C@H](C[C@@H](OC(C)=O)c1nc(C(=O)N[C@@H](Cc2ccc(NCC(N)=O)cc2)CC(C)(C)C(=O)O)cs1)C(C)C (racemic) [PA18, Rac-(R)-4-(2-((1S,3S)-1-acetoxy-3-((2R,3R)—N-hexyl-3-methyl-2-((S)-1-methylpiperidine-2-carboxamido)pentanamido)-4-methylpentyl)thiazole-4-carboxamido)-acid]	0.067	0.3	0.131
CCCCCCN(C(=O)[C@@H](NC(=O)[C@@]1(C)CCCN1C(=O)CN)[C@@H](C)CC)[C@H](C[C@@H](OC(C)=O)c1nc(C(=O)N[C@@H](Cc2ccc(O)cc2)CC(C)(C)C(=O)O)cs1)C(C)C [PA2, (4S)-4-({2-[(1R,3R)-1-(acetyloxy)-3-[(2S,3S)-2-{[(2R)-1-(2-aminoacetyl)-2-methylpyrrolidin-2-yl]formamido}-N-hexyl-3-methylpentanamido]-4-methylpentyl]-1,3-thiazol-4-yl}formamido)-5-(4-hydroxyphenyl)-2,2-dimethylpentanoic acid]		> 100	
CCCCCCN(C(=O)[C@@H](NC(=O)[C@@]1(C)CCCN1C(=O)CN)[C@@H](C)CC)[C@H](C[C@@H](OC(C)=O)c1nc(C(=O)N[C@@H](Cc2ccc(N)c(F)c2)CC(C)(C)C(=O)O)cs1)C(C)C [PA1, (4S)-4-({2-[(1R,3R)-1-(acetyloxy)-3-[(2S,3S)-2-{[(2R)-1-(2-aminoacetyl)-2-methylpyrrolidin-2-yl]formamido}-N-hexyl-3-methylpentanamido]-4-methylpentyl]-1,3-thiazol-4-yl}formamido)-5-(4-amino-3-fluorophenyl)-2,2-dimethylpentanoic acid]		> 100	> 100
